Test results as given in patent US20110105623A1 (Biogenic Innovations, LLC, priority 2009, published 2011).
Where “and” joins values, the source holds several entries; their conditions need not be identical. Identical values can stand only once. Like-named read-outs stand apart in the source and are kept apart here.

How the values were obtained:
Lactobacillus rhamnosus = assay: Growth in MRS broth fortified with MSM; format: cell-based; conditions: for Growth: 0.04% MSM in MRS broth, 0-72 hours
Protocol: Each organism (Lactobacillus rhamnosus, Lactobacillus acidophilus, and Bifidobacterium bifidum) was grown in MRS bacterial growth medium (broth) and plated on MRS agar at different time intervals. Results are expressed in colony forming units per milliliter (cfu/mL).
The 0.1% and 0.04% test concentrations were prepared by making a 1:10 dilution of the 1% and 0.4% test solutions. Once each set of test media was plated for sterility, they were inoculated at a level of 100 μl of inoculum per 100 g or mLs of test broth (1:1000 inoculum dilutions) with each respective microorganism. All bacterial organisms were incubated at 35° C.+/−2° C. for the duration of the study.
All samples were plated on MRS agar at time 0, 12, 36, 48, 60 and 72 hours (+/−45 minutes). All preparations and plating were conducted at room temperature. All plating events were incubated at 35° C.+/−2° C. for at least 2 days or 3 days for Bifidobacterium. Test samples were plated in triplicate at each test date and the averages are reported.

[1] = test system: Herpes Simplex Virus type 1 (ATCC #VR-260); format: cell-based
Staphylococcus aureus = assay: USP <51> AET in cosmetic cream/composition; format: cell-based; conditions: for Log Reduction from Initial Microorganism Inoculum: 14, 28 Days
Bacillus coagulans = assay: Colony formation, population weight and percent transmittance with MSM; format: cell-based; conditions: 546 nm, 25x25 mm agar section, 1.0, 2.5, 5.0% MSM
Protocol: The microorganisms were grown for 72 hours in 30 milliliters of tryptic soy broth. At the end of the 72 hours, the broth was measured for colony formation, with photographic documentation of colony formation on tryptic soy agar. Percent transmittance was also measured on a 25 mm×25 mm area of the tryptic soy agar placed between two microscope slides in a spectrophotometer.
For the Bacillus coagulans, the organism was isolated and grown for 24 hours before harvesting. The harvested microorganism was placed into a sterile 100 mL bottle called dilution A. Dilution A was further diluted into one working solution, with a count of 210 Bacillus coagulans per 1 mL, called dilution B. One milliliter of Dilution B was used to inoculate the 30 mL of TSB concentrations stated above.
Each dilution for the microorganism was plated in triplicate for each sample. To capture the appropriate colonies per milliliter, the microorganism was plated at six different dilutions.
The population count was based on the dilution of the tryptic soy broth after 72 hours and inoculation on to tryptic soy agar plates. The plates were incubated for 48 hours and enumerated.
The tryptic soy broth after 72 hours was centrifuged down in a conical vial. The supernatant was pulled off and the pellet was washed. The centrifuging and washing was repeated three times. […] Each vial was weighed empty and recorded. […]

[2] = test system: Acidophilus plus Bifidus milk microorganisms; assay: Recovery from Acidophilus plus bifidus milk fortified with MSM; format: cell-based; conditions: for Lag Recovery of Lactobacillus acidophilus in Milk fortified with MSM Day 14: A/B 2.5 MSM; for Lag Recovery of Lactobacillus acidophilus in Milk fortified with MSM Day 7 / Lag Recovery of Lactobacillus acidophilus in Milk fortified with MSM Day 21 / Lag Recovery of Lactobacillus acidophilus in Milk fortified with MSM Day 28: A/B […] MSM
[3] = test system: Rhinovirus type 14 (ATCC #VR-284); format: cell-based
[4] = test system: Lactobacillus acidophilus ATCC #4356; assay: Growth and recovery in simulated intestinal tract environment
Protocol: The pH of the simulated intestinal fluid was 6.8. The microorganisms analyzed included Lactobacillus acidophilus ATCC #4356:
For the Lactobacillus acidophilus, bottled milk was used as the product. One milliliter of a 9 log solution of organism was placed into a 99 mL of bottled milk and mixed by hand shaking. […] The gastric acid was pre-warmed to 35° C. and kept at 35° C. for the duration of the 20 minutes. At the end of the 20 minute period, 10 mL of the simulated gastric acid, Lactobacillus acidophilus and milk mixture was placed into 90 mL of simulated intestinal fluid. The simulated intestinal fluid was pre-warmed to 35° C. and kept at 35° C. during the duration of the study.

[5] = log(inhibitor) vs. normalized response, variable slope
[6] = log(inhibitor) vs. normalized response, variable slope, dose in mM

Methylsulfonylmethane [MSM] was tested, and the Growth (Lactobacillus rhamnosus; 0 hours after inoculation) was 1.7 × 10^6 cfu/mL, the Growth (Lactobacillus rhamnosus; 12 hours after inoculation) was 2.1 × 10^7 cfu/mL and the Growth (Lactobacillus rhamnosus; 24 hours after inoculation) was 1.5 × 10^9 cfu/mL. For the same substance, the Growth (Lactobacillus rhamnosus; 36 hours after inoculation) was 1.8 × 10^9 cfu/mL, the Growth (Lactobacillus rhamnosus; 48 hours after inoculation) was 2.1 × 10^9 cfu/mL and the Growth (Lactobacillus rhamnosus; 60 hours after inoculation) was 2.6 × 10^9 cfu/mL. For the same substance, the “higher than 0% control” value (Lactobacillus rhamnosus; first 12 hours, 0.2% MSM) was 41%, the “higher than 0% control” value (Lactobacillus rhamnosus; first 12 hours, 1% MSM) was 47% and the “recovered more than the 0% control” value (Lactobacillus rhamnosus; first 12 hours, all MSM samples) was “at least 12%”. For the same substance, the “Average TCID50” value [1] was 3.17log10 and 4.67log10 and 4.33log10 and 4.08log10 and 4.83log10 and 5.00log10 and 5.42log10, the “CPE at dilution −8” value [1] was 0000 and the “Response, % reduction” value [1] was 78.620% and 99.320% and 99.790% and 87.980% and 93.240% and 98.800% and 97.860% and 61.980%. For the same substance, the “average log10 reduction” value ([1]; 1% MSM) was 0.67 log10, the average percent reduction ([1]; 1% MSM) was 78.62% and the “average log10 reduction” value ([1]; 2% MSM) was 0.84 log10. The average percent reduction ([1]; 2% MSM) was 85.55%, the “average log10 reduction” value ([1]; 3% MSM) was 1.00 log10 and the average percent reduction ([1]; 3% MSM) was 90.00%. For the same substance, the average percent reduction ([1]; 4% MSM) was 97.43%, the “Response, % reduction” value ([1]; Dose 5.312 mM (log dose 0.7252581)) was 32.390% and 61.980% and the “Response, % reduction” value ([1]; Dose 31.871 mM (log dose 1.503396)) was 96.200% and 93.240% and 61.980%. For the same substance, the “Response, % reduction” value ([1]; Dose 53.118 mM (log dose 1.725242)) was 87.980% and 93.240% and 98.800%, the “HillSlope, best-fit value” [1, 5] was 1.523 and the “LogIC50, best-fit value” [1, 6] was 1.006. The AET microorganism count (Staphylococcus aureus; 10% MSM in cosmetic cream without preservative, 48 hrs-28 days) was under 10, the “Log Reduction from Initial Microorganism Inoculum” value (shortened to “Log Reduction”) (Staphylococcus aureus; 10% MSM in preservative-free jojoba cream) was 5.6 log and the “Log Reduction” value (Staphylococcus aureus; 10% MSM, Composition #1) was 5.7 log. The “Log Reduction” value (Staphylococcus aureus; 10% MSM, Composition #2) was 5.7 log, the “Percent Transmittance” value (Bacillus coagulans; 1.0% MSM) was 51.5% and the “Percent Transmittance” value (Bacillus coagulans; 5.0% MSM) was 45.6%. For the same substance, the “Lag Recovery of Lactobacillus acidophilus in Milk fortified with MSM Day 14” value (shortened to “Lag Recovery … with MSM Day 14”) ([2]; Day 14-24) was 13.35 logs, the “Lag Recovery … with MSM Day 14” value ([2]; Day 14-48) was 13.47 logs and the “Lag Recovery … with MSM Day 14” value ([2]; Day 14-72) was 13.43 logs. The “Lag Recovery of Lactobacillus acidophilus in Milk fortified with MSM Day 7” value ([2]; Day 7-24) was 13.44 logs, the “Lag Recovery of Lactobacillus acidophilus in Milk fortified with MSM Day 7” value ([2]; Day 7-72) was 12.77 logs and the “Lag Recovery of Lactobacillus acidophilus in Milk fortified with MSM Day 21” value (from here on “Lag Recovery … with MSM Day 21”) ([2]; Day 21-24) was 13.08 logs. The “Lag Recovery … with MSM Day 21” value ([2]; Day 21-48) was 12.08 logs, the “Lag Recovery … with MSM Day 21” value ([2]; Day 21-72) was 12.33 logs and the “Lag Recovery of Lactobacillus acidophilus in Milk fortified with MSM Day 28” value (“Lag Recovery … with MSM Day 28” for short) ([2]; Day 28-24) was 12.67 logs. For the same substance, the “Lag Recovery … with MSM Day 28” value ([2]; Day 28-48) was 13.19 logs, the “Lag Recovery … with MSM Day 28” value ([2]; Day 28-72) was 12.00 logs and the “Recovery of Lactobacillus acidophilus in Milk fortified with MSM Day 7, initial start data” value ([2]; Ac/Bf […] MSM, Day 7) was 8.42 logs. For the same substance, the “Recovery of Lactobacillus acidophilus in Milk fortified with MSM Day 14, initial start data” value ([2]; Ac/Bf […] MSM, Day 14-0) was 3.70 logs, the “Recovery of Lactobacillus acidophilus in Milk fortified with MSM Day 21, initial start data” value ([2]; Ac/Bf […] MSM, Day 21) was 3.37 logs and the “Recovery of Lactobacillus acidophilus in Milk fortified with MSM Day 28, initial start data” value ([2]; Ac/Bf […] MSM, Day 28) was 1.94 logs. For the same substance, the “Day 7 log recovery growth rate increase from start time of zero” value (“Day 7 log recovery growth rate increase” for short) ([2]; Ac/Bf […] MSM, Hour 0) was 0.00 logs, the “Day 14 log recovery growth rate increase from start time of zero” value (shortened to “Day 14 log recovery growth rate increase”) ([2]; Ac/Bf […] MSM, Hour 0) was 0.00 logs and the “Day 21 log recovery growth rate increase from start time of zero” value (“Day 21 log recovery growth rate increase” for short) ([2]; Ac/Bf […] MSM, Hour 0) was 0.00 logs. For the same substance, the “Day 7 log recovery growth rate increase” value ([2]; Ac/Bf […] MSM, Hour 24) was 5.02 logs, the “Day 14 log recovery growth rate increase” value ([2]; Ac/Bf […] MSM, Hour 24) was 9.65 logs and the “Day 21 log recovery growth rate increase” value ([2]; Ac/Bf […] MSM, Hour 24) was 9.71 logs. The “Day 7 log recovery growth rate increase” value ([2]; Ac/Bf […] MSM, Hour 48) was −0.94 logs, the “Day 14 log recovery growth rate increase” value ([2]; Ac/Bf […] MSM, Hour 48) was 0.12 logs and the “Day 21 log recovery growth rate increase” value ([2]; Ac/Bf […] MSM, Hour 48) was −1.00 logs. The “Day 7 log recovery growth rate increase” value ([2]; Ac/Bf […] MSM, Hour 72) was 0.27 logs, the “Day 14 log recovery growth rate increase” value ([2]; Ac/Bf […] MSM, Hour 72) was −0.04 logs and the “Day 21 log recovery growth rate increase” value ([2]; Ac/Bf […] MSM, Hour 72) was 0.25 logs. For the same substance, the “Day 28 log recovery growth rate increase from start time of zero” value (“Day 28 log recovery growth rate increase” below) ([2]; Ac/Bf […] MSM, Time 0) was 0.00 logs, the “Day 28 log recovery growth rate increase” value ([2]; Ac/Bf […] MSM, Time 24) was 10.73 logs and the “Day 28 log recovery growth rate increase” value ([2]; Ac/Bf […] MSM, Time 48) was 0.52 logs. For the same substance, the “Day 28 log recovery growth rate increase” value ([2]; Ac/Bf […] MSM, Time 72) was −1.19 logs, the “Average Log Stimulation” value [3] was 0.053log10 and 0.11log10 and the “Average Percent Stimulation” value [3] was 11.49% and 22.38%. The “Average TCID50” value [3] was 4.42log10 and 5.00log10 and 5.58log10 and 5.42log10 and 5.67log10 and 5.25log10, the “Log Stimulation” value [3] was 0.08log10 and 0.00log10 and 0.17log10 and the TCID50 [3] was 4.25log10 and 4.50log10 and 4.75log10 and 5.00log10 and 5.25log10 and 5.50log10 and 6.00log10 and 5.75log10. The “average log10 reduction” value ([3]; 1% MSM) was 0.14 log10, the average percent reduction ([3]; 1% MSM) was 27.56% and the “average log10 reduction” value ([3]; 2% MSM) was 0.42 log10. The average percent reduction ([3]; 2% MSM) was 61.98%, the “average log10 reduction” value ([3]; 3% MSM) was 0.11 log10 and the average percent reduction ([3]; 3% MSM) was 22.38%. For the same substance, the “average log10 reduction” value ([3]; 4% MSM) was 0.28 log10, the average percent reduction ([3]; 4% MSM) was 47.52% and the “HillSlope, best-fit value” [3, 5] was 0.6280. The “LogIC50, best-fit value” [3, 6] was 1.582, the “Log Growth of Lactobacillus acidophilus” value ([4]; 5.0% MSM, 20 min Gastric) was under 1.00 logs and the “Log Growth of Lactobacillus acidophilus” value ([4]; 5.0% MSM, Hour 3, simulated intestinal fluid) was 1.62 logs. The “Log Growth of Lactobacillus acidophilus” value ([4]; 5.0% MSM, Hour 8, simulated intestinal fluid) was 2.33 logs, the “Log Growth of Lactobacillus acidophilus” value ([4]; 5.0% MSM, Hour 24, simulated intestinal fluid) was 6.39 logs and the “Log Growth of Lactobacillus acidophilus” value ([4]; 5.0% MSM, Hour 30, simulated intestinal fluid) was 6.63 logs. The “Log Growth of Lactobacillus acidophilus” value ([4]; 5.0% MSM, Hour 36, simulated intestinal fluid) was 8.65 logs, the “Log Growth of Lactobacillus acidophilus” value ([4]; 5.0% MSM, Hour 48, simulated intestinal fluid) was 10.17 logs and the “Log Growth of Lactobacillus acidophilus” value ([4]; 5.0% MSM, Hour 54, simulated intestinal fluid) was 13.33 logs. For the same substance, the “Log Growth of Lactobacillus acidophilus” value ([4]; 5.0% MSM, Hour 60, simulated intestinal fluid) was 12.76 logs, the “Log Growth of Lactobacillus acidophilus” value ([4]; 5.0% MSM, Hour 72, simulated intestinal fluid) was 12.78 logs and the “Log Growth of Lactobacillus acidophilus” value ([4]; 5.0% MSM, Starting Inoculum) was 7.02 logs. The log growth ([4]; 5.0% MSM, hour 36) was 8.65 logs, the increase in growth ([4]; 5.0% MSM, period after hour 48) was 3.16 logs and the “Log Growth of Lactobacillus acidophilus” value ([4]; […] MSM, 20 min Gastric) was under 1.00 logs. The “Log Growth of Lactobacillus acidophilus” value ([4]; […] MSM, Starting Inoculum) was 6.86 logs and the increase in growth ([4]; […] MSM, hour 36 to 48) was 3.65 logs.
